Experimental data from patent US20260216294A1, “BETA 2-ADRENERGIC RECEPTOR AGONISTS FOR TREATMENT OR PREVENTION OF MUSCLE WASTING” (ATROGI AB, priority 2023, published 2026).

How the values were obtained:
β2-adrenergic receptor [1] = molecular target: T1, β2-adrenergic receptor (Rattus norvegicus, UniProt P10608); experiment: Glucose uptake in the presence of the selective β2-adrenergic receptor antagonist ICI-118551 (Biological Example 1); type: cell-based; conditions: L6-myotubes; test compound 1×10^−5 M; different concentrations of ICI-118551; FIGS. 1a-1c
T1 construct: endogenous in cells; host or cells: L6 myoblasts differentiated into myotubes
Experimental: L6-myoblasts were grown in Dulbecco's Modified Eagle's Medium (DMEM) containing 1 g/L glucose supplemented with 10% fetal bovine serum (FBS), 2 mM L-glutamine, 50 U/mL penicillin, 50 μg/mL streptomycin and 10 mM HEPES. Cells were plated at 1×10^5 cells per mL in 24-well plates. After reaching 90% confluence the cells were grown in medium containing 2% FBS for 7 days where upon cells differentiated into myotubes. The differentiated L6-myotubes were serum-starved overnight in medium containing 0.5% fatty-acid free BSA and stimulated with the test compound at a final concentration of 1×10^−5 M in the presence of different concentrations of the selective β2-adrenergic receptor antagonist ICI-118551. After 1 h 40 min the cells were washed with warm, glucose free medium twice and another portion of agonist was added to the glucose free medium. After another 20 min of incubation the cells were exposed to 50 nM ^3H-2-deoxyglucose for 10 min before washed in ice cold glucose free medium three times and lysed in 400 μL/well 0.2 M NaOH for 1 h at 60° C. The cell lysate was mixed with 4 ml scintillation buffer (Emulsifier Safe, Perkin Elmer) and the radioactivity was detected in a β-counter (Tri-Carb 4810TR, Perkin Elmer).

L6-myotubes [2] = experiment: Glucose uptake in differentiated L6-myotubes (Biological Example 2); type: cell-based; conditions: for glucose uptake: L6-myotubes, FIGS. 2a-2d; for Emax at 10 µM: read-out: Biological example 2 (GU)
How it was run: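 Uptake was quantified as radioactivity in 0.2 M NaOH lysates after a 10 min pulse of 50 nM ^3H-2-deoxyglucose. The pulse followed two agonist exposures at 1×10^−5 M final (isoprenaline or test compound): 1 h 40 min, then 20 min in glucose-free medium after washing. L6 myotubes had been starved overnight in medium with 0.5% fatty-acid-free BSA.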

L6-myotubes [3] = experiment: Measurement of intracellular cAMP levels in differentiated L6-myotubes (Biological Example 3); type: cell-based; conditions: for intracellular cAMP levels: L6-myotubes, 15 min stimulation, compared with isoprenaline, FIGS. 2a-2d; for Emax at 10 µM: 0.25 h
How it was run: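 Intracellular cAMP quantified by AlphaScreen after ethanol extraction and lysis of L6 myotubes. Cells were serum-starved overnight, then exposed for 15 min to compound (final 1×10^−5 M) or isoprenaline in IBMX-containing (1 mM) HBSS buffer, pH 7.4.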

β2-adrenergic receptor [4] = molecular target: T2, β2-adrenergic receptor (Homo sapiens, UniProt P07550); experiment: β-arrestin 2 recruitment, Large BiT/Small BiT luciferase complementation in HEK293 cells (Biological Example 4); type: cell-based; conditions: luminescence after 31 min, compared with isoprenaline, FIGS. 3a-3c
T2 construct: expressed in transfected cells; host or cells: HEK293
Experimental: HEK293 cells are transfected with both the β2-adrenergic receptor attached with a Large BiT SNAP-tag protein, and with p-arrestin 2 attached to a Small BiT SNAP-tag protein. When cells are stimulated and the receptor recruits β-arrestin 2, the Small- and Large-BiT proteins merge, forming a functional luciferase enzyme, that in presence of furimazine generates light. After 31 min, the light is measured with a luminescence plate reader.

C57Bl/6 mice = experiment: Body weight and lean mass in mice treated with dexamethasone (Biological Example 5); type: in vivo; conditions: male C57Bl/6 mice, daily s.c. for 3 weeks, dexamethasone sodium phosphate 10 mg/kg, Compound A 47.1 μmol/kg
Experimental: 40 eight-week-old male C57Bl/6 mice kept on standard chow diet were grouped-caged (2-3 mice per cage) at 21° C. The mice had similar body weight and body composition and were divided into four groups (n=10) and were treated daily with subcutaneous injections for 3 weeks with either dexamethasone sodium phosphate (10 mg/kg) or Compound A (47.1 μmol/kg (corresponding to dose 10 mg/kg of the free base)), or a combination of dexamethasone and Compound A. Control mice received saline. Body weight and lean mass were measured after 6, 12 and 20 days of treatment.

[5] = glucose uptake in differentiated L6-myotubes, compound at 10 μM, activity relative to isoproterenol at 10 μM
[6] = intracellular cAMP in differentiated L6-myotubes, compound at 10 μM, activity relative to isoproterenol at 10 μM
[7] = glucose uptake, compound at 10 μM relative to isoproterenol at 10 μM
[8] = intracellular cAMP, compound at 10 μM relative to isoproterenol at 10 μM

T1 sequence (P10608 whole entry): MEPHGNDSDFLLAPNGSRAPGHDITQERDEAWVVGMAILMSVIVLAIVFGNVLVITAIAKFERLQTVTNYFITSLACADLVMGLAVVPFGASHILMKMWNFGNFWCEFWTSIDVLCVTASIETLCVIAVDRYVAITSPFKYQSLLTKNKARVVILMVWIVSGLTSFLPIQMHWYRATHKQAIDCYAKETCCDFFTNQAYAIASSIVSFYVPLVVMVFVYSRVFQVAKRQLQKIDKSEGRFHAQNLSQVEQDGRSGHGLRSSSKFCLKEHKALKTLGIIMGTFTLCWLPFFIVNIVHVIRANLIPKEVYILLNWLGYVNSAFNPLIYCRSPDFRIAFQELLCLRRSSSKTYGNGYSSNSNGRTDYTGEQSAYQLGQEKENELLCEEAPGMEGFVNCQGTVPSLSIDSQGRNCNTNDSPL
T2 sequence (P07550 whole entry, species assumed): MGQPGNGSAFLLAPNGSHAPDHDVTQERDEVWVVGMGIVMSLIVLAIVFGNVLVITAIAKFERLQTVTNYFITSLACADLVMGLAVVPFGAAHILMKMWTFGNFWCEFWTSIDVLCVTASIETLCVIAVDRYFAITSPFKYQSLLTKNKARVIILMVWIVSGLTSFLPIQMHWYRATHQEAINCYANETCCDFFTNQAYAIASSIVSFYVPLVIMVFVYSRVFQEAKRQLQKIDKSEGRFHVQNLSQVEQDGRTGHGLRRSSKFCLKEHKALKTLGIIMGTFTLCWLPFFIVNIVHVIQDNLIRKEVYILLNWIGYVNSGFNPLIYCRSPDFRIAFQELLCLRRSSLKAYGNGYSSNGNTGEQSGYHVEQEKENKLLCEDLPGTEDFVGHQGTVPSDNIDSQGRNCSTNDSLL

Row | Compound | Emax at 10 µM (L6-myotubes [2]; [5]) [%] | Emax at 10 µM (L6-myotubes [3]; [6]) [%] | Emax at 10 µM (L6-myotubes [2]; [7]) [%] | Emax at 10 µM (L6-myotubes [3]; [8]) [%] | also measured
1 | CC(C)(C)NC[C@H](O)c1cncc(F)c1.O=C(O)C(O)C(O)C(=O)O [Compound B, (R)-2-(tert-Butylamino)-1-(5-fluoropyridin-3-yl)ethan-1-ol hemi-tartrate] | – | – | – | – | glucose uptake promoted by the compound in the presence of ICI-118551 (β2-adrenergic receptor [1]): inhibited in a dose-dependent manner; glucose uptake (L6-myotubes [2]): full glucose uptake response; intracellular cAMP levels (L6-myotubes [3]): low intracellular cAMP levels; β-arrestin 2 recruitment (β2-adrenergic receptor [4]): minimal p-arrestin 2 recruitment
2 | CC(C)(C)NC[C@H](O)c1cccc(F)c1.Cl [Compound A, (R)-2-(tert-Butylamino)-1-(3-fluorophenyl)ethan-1-ol hydrochloride] | – | – | – | – | glucose uptake promoted by the compound in the presence of ICI-118551 (β2-adrenergic receptor [1]): inhibited in a dose-dependent manner; glucose uptake (L6-myotubes [2]): full glucose uptake response; intracellular cAMP levels (L6-myotubes [3]): low intracellular cAMP levels; β-arrestin 2 recruitment (β2-adrenergic receptor [4]): minimal p-arrestin 2 recruitment; body weight (C57Bl/6 mice; FIG. 4): effect is reversed; lean mass (C57Bl/6 mice; FIG. 5): effect is reversed
3 | CN(C)S(=O)(=O)[C@H]1CC[C@@H](CC(C)(C)NC[C@H](O)c2cccc(F)c2)CC1 [Compound 470] | > 75 | 25 to 50 | – | – | –
4 | OC(CNCC1CCCCC1)c1ccccc1 (stereo not shown) [Compound 7, 2-[(cyclohexylmethyl)amino]-1-phenyl-1-ethanol] | – | – | 25 to 50 | < 25 | –
5 | CC(C)(NC[C@H](O)c1cccc(F)c1)[C@H]1CC[C@H](OCc2ccccc2)CC1 [Compound 279, (R)-1-(m-fluorophenyl)-2-{1-methyl-1-[(1r,4R)-4-(benzyloxy)cyclohexyl]ethylamino}-1-ethanol] | 50 to 75 | < 25 | – | – | –
6 | CCC[C@@H]1CCC[C@H]([C@H](O)c2cccc(F)c2)N1 [Compound 59, (R)-[(2R,6R)-6-propyl-2-piperidyl](m-fluorophenyl)methanol] | – | – | 25 to 50 | < 25 | –
7 | CCC[C@H]1CCC[C@H]([C@@H](O)c2ccc(F)cc2)N1 [Compound 105] | – | – | 25 to 50 | < 25 | –
8 | O[C@H](c1cccc(F)c1)C12CCC(C/C=C/c3ccccc3)(CC1)N2 [Compound 534] | > 75 | < 25 | – | – | –
9 | COc1ccc(C[C@H]2CC[C@H]([C@@H](O)c3cncc(F)c3)N2)cc1 [Compound 380, (S)-{(2R,5R)-5-[(p-methoxyphenyl)methyl]-2-pyrrolidinyl}(5-fluoro-3-pyridyl)methanol] | > 75 | < 25 | – | – | –
10 | CC(C)(C[C@H]1CC[C@@H](NC(=O)OC(C)(C)C)CC1)NC[C@H](O)c1cncc(F)c1 [Compound 469, (1S,4s)-4-{2-[(R)-2-(5-fluoro-3-pyridyl)-2-hydroxyethylamino]-2-methylpropyl}cyclohexy-2-methyl-2-propanecarbamate] | – | – | – | – | Biological example 2 (GU) (L6-myotubes [2]; [5]): +++ (If a compound at 10 μM shows activity of more than 75% of that of isoproterenol at 10 μM, the activity is denoted with +++); Biological example 3 (CAMP) (L6-myotubes [3]; [6]): − (if it less than 25% it is denoted with −)
11 | CC(C)(C)NC[C@H](O)c1cccc(O)c1F [Compound 86, (R)-2-(tert-butylamino)-1-(2-fluoro-3-hydroxyphenyl)-1-ethanol] | – | – | 50 to 75 | 50 to 75 | –
12 | CC(C)(C)NC[C@H](O)c1cncc(Cl)c1 [Compound 138, (R)-2-(tert-butylamino)-1-(5-chloro-3-pyridyl)-1-ethanol] | – | – | > 75 | > 75 | –
13 | O[C@H](c1cccc(F)c1)C12CCC(COCc3ccc(F)cc3)(CC1)N2 [Compound 439, (R)-(m-fluorophenyl)(4-{[(p-fluorophenyl)methoxy]methyl}-7-azabicyclo[[2.2.1]]hept-1-yl)methanol] | > 75 | 25 to 50 | – | – | –
14 | CCCCNC[C@H](O)c1cccc(O)c1F [Compound 87, (R)-2-(butylamino)-1-(2-fluoro-3-hydroxyphenyl)-1-ethanol] | – | – | > 75 | 25 to 50 | –
15 | CCCC(C)(C)NC[C@H](O)c1cccc(F)c1 [Compound 61, (R)-2-(1,1-dimethylbutylamino)-1-(m-fluorophenyl)-1-ethanol] | – | – | > 75 | < 25 | –
16 | CC12CCC([C@H](O)c3cncc(F)c3)(CC1)N2 [Compound 185, (R)-(5-fluoro-3-pyridyl)(4-methyl-7-azabicyclo[[2.2.1]]hept-1-yl)methanol] | – | – | > 75 | < 25 | –
17 | CC(C)(C)NC[C@H](O)c1ccccc1F [Compound 78, (R)-2-(tert-butylamino)-1-(o-fluorophenyl)-1-ethanol] | – | – | > 75 | 25 to 50 | –
18 | CC(=O)N[C@H]1CC[C@@H](CC(C)(C)NC[C@H](O)c2cncc(F)c2)CC1 [Compound 467] | > 75 | < 25 | – | – | –
19 | CC(=O)N(Cc1ccccc1)[C@H]1CC[C@@H](C[C@@H]2CC[C@H]([C@@H](O)c3cccc(F)c3)N2)CC1 [Compound 479, N-[(1R,4s)-4-({(2S,5R)-5-[(S)-(m-fluorophenyl) hydroxymethyl]-2-pyrrolidinyl}methyl)cyclohexyl]-N-benzylacetamide] | < 25 | < 25 | – | – | –
20 | CC(C)(C[C@H]1CC[C@@H](C(=O)O)CC1)NC[C@H](O)c1cncc(F)c1 [Compound 324, (1S,4s)-4-{2-[(R)-2-(5-fluoro-3-pyridyl)-2-hydroxyethylamino]-2-methylpropyl} cyclohexanecarboxylic acid] | 25 to 50 | < 25 | – | – | –
21 | CC12CC(C1)[C@@H]([C@@H](O)c1ccccc1F)N2 [Compound 211, (S)-{(S)-1-methyl-2-azabicyclo[[2.1.1]]hex-3-yl}(o-fluorophenyl)methanol] | > 75 | < 25 | – | – | –
22 | CCC[C@H]1CCC[C@@H]([C@H](O)c2cccc(Cl)c2)N1 [Compound 123] | – | – | 25 to 50 | < 25 | –
23 | CN(C)S(=O)(=O)[C@H]1CC[C@H](CC(C)(C)NC[C@H](O)c2cccc(F)c2)CC1 [Compound 464] | 25 to 50 | 25 to 50 | – | – | –
24 | O[C@@H](CNCCC[C@H]1CC[C@H](O)CC1)c1cncc(F)c1 [Compound 305, (R)-1-(5-fluoro-3-pyridyl)-2-{3-[(1r,4S)-4-hydroxycyclohexyl]propylamino}-1-ethanol] | 25 to 50 | < 25 | – | – | –
25 | CC(C)CS(=O)(=O)N[C@H]1CC[C@H](CC(C)(C)NC[C@H](O)c2cncc(F)c2)CC1 [Compound 526] | 50 to 75 | < 25 | – | – | –
26 | CC1(C)CC[C@H]([C@@H](O)c2cncc(F)c2)N1 [Compound 156] | – | – | < 25 | < 25 | –
